Measured values published in patent publication US20250312462A1, “PAK1 DEGRADERS AND METHODS OF USE THEREOF” (INSTITUTE FOR CANCER RESEARCH D/B/A THE RESEARCH INSTITUTE …, priority 2022, published 2025).

Legend:
TAK1 = TAK1 (Homo sapiens, UniProt O43318); assay: KINOMEscan; details: read-out: Percent Control
Description: (§4) The kinase engagement assay (KINOMEscan®) was performed by DiscoverX assessing binding abilities toward a set of kinases.

MAP3K15 = MAP3K15 (Homo sapiens, UniProt Q6ZN16); assay: KINOMEscan; details: read-out: Percent Control
Description: as §4

[1] = target: TYK2(JH1domain-catalytic) (Homo sapiens, UniProt P29597); assay: KINOMEscan; details: read-out: Percent Control
Description: as §4

EPHB2 = EPHB2 (Homo sapiens, UniProt P29323); assay: KINOMEscan; details: read-out: Percent Control
Description: as §4

LCK = LCK (Homo sapiens, UniProt P06239); assay: KINOMEscan; details: read-out: Percent Control
Description: as §4

p38-beta = p38-beta (Homo sapiens, UniProt Q15759); assay: KINOMEscan; details: read-out: Percent Control
Description: as §4

PIK3CA(E545K) = PIK3CA(E545K) (Homo sapiens, UniProt P42336, E545K); assay: KINOMEscan; details: read-out: Percent Control
Description: as §4

DDR1 = DDR1 (Homo sapiens, UniProt Q08345); assay: KINOMEscan; details: read-out: Percent Control
Description: as §4

MAP4K3 = MAP4K3 (Homo sapiens, UniProt Q8IVH8); assay: KINOMEscan; details: read-out: Percent Control
Description: as §4

RNF166 = target: T1, RNF166 (Homo sapiens, UniProt Q96A37+Q96SW2); assay: Global multiplexed mass spectrometry proteomics in MOLT4 cells; format: cell-based; details: 1 μM, 5 hours
T1 construct: endogenous in cells; host or cells: MOLT4
Description: (§1) MOLT4 cells were treated with DMSO in biological triplicate and 1 μM BJG-05-039 for 5 hours and harvested by centrifugation. Cell lysis was performed by the addition of Urea buffer (8 M Urea, 50 mM NaCl, 50 mM 4-(2-hydroxyethyl)-1-piperazineethanesulfonic acid (EPPS) pH 8.5, Protease and Phosphatase inhibitors) followed by manual homogenization by 20 passes through a 21-gauge (1.25 in. long) needle. Lysate was clarified by centrifugation at 4° C. and protein quantified using bradford (Bio-Rad) assay. 100 μg of protein for each sample was reduced, alkylated and precipitated using methanol/chloroform as described (Donovan, et al. (2018) Elife 7: e38430). The resulting precipitated protein was resuspended in 4 M Urea, 50 mM HEPES pH 7.4, buffer for solubilization, followed by dilution to 1 M urea with the addition of 200 mM EPPS, pH 8. Proteins were digested for 12 hours at room temperature with LysC (1:50 ratio), followed by dilution to 0.5 M urea and a second digestion step was performed by addition of trypsin (1:50 ratio) for 6 hours at 37° C. Anhydrous ACN was added to each peptide sample to a final concentration of 30%, followed by addition of Tandem mass tag (TMT) reagents at a labelling ratio of 1:4 peptide:TMT label. TMT labelling occurred over a 1.5 hour incubation at room temperature followed by quenching with the addition of hydroxylamine to a final concentration of 0.3%. Each of the samples were combined using adjusted volumes and dried down in a speed vacuum followed by desalting with C18 SPE (Sep-Pak, Waters). […]
(§2) Quantification was performed using a MS3-based TMT method as described (Donovan et al. (2020) Cell 183(6):1714-1731). […]
(§3) Proteome Discoverer 2.4 (Thermo Fisher Scientific) was used for .RAW file processing and controlling peptide and protein level false discovery rates, assembling proteins from peptides, and protein quantification from peptides. […]

Aiolos (IKZF3) = target: T2, Aiolos (IKZF3) (Homo sapiens, UniProt Q96SW2+Q9UKT9); assay: as above; format: cell-based; details: 1 μM, 5 hours
T2 construct: endogenous in cells; host or cells: MOLT4
Description: as §1, §2, §3

Ikaros (IKZF1) = target: T3, Ikaros (IKZF1) (Homo sapiens, UniProt Q13422+Q96SW2); assay: as above; format: cell-based; details: 1 μM, 5 hours
T3 construct: endogenous in cells; host or cells: MOLT4
Description: as §1, §2, §3

PAK4 = PAK4 (Homo sapiens, UniProt O96013); assay: KINOMEscan; details: read-out: Percent Control
Description: as §4

RIPK5 = RIPK5 (Homo sapiens, UniProt Q6XUX3); assay: KINOMEscan; details: read-out: Percent Control
Description: as §4

PIK3CA(H1047L) = PIK3CA(H1047L) (Homo sapiens, UniProt P42336, H1047L); assay: KINOMEscan; details: read-out: Percent Control
Description: as §4

TLK1 = TLK1 (Homo sapiens, UniProt Q9UKI8); assay: KINOMEscan; details: read-out: Percent Control
Description: as §4

ERBB3 = ERBB3 (Homo sapiens, UniProt P21860); assay: KINOMEscan; details: read-out: Percent Control
ERBB3, sequence (P21860 20-1342): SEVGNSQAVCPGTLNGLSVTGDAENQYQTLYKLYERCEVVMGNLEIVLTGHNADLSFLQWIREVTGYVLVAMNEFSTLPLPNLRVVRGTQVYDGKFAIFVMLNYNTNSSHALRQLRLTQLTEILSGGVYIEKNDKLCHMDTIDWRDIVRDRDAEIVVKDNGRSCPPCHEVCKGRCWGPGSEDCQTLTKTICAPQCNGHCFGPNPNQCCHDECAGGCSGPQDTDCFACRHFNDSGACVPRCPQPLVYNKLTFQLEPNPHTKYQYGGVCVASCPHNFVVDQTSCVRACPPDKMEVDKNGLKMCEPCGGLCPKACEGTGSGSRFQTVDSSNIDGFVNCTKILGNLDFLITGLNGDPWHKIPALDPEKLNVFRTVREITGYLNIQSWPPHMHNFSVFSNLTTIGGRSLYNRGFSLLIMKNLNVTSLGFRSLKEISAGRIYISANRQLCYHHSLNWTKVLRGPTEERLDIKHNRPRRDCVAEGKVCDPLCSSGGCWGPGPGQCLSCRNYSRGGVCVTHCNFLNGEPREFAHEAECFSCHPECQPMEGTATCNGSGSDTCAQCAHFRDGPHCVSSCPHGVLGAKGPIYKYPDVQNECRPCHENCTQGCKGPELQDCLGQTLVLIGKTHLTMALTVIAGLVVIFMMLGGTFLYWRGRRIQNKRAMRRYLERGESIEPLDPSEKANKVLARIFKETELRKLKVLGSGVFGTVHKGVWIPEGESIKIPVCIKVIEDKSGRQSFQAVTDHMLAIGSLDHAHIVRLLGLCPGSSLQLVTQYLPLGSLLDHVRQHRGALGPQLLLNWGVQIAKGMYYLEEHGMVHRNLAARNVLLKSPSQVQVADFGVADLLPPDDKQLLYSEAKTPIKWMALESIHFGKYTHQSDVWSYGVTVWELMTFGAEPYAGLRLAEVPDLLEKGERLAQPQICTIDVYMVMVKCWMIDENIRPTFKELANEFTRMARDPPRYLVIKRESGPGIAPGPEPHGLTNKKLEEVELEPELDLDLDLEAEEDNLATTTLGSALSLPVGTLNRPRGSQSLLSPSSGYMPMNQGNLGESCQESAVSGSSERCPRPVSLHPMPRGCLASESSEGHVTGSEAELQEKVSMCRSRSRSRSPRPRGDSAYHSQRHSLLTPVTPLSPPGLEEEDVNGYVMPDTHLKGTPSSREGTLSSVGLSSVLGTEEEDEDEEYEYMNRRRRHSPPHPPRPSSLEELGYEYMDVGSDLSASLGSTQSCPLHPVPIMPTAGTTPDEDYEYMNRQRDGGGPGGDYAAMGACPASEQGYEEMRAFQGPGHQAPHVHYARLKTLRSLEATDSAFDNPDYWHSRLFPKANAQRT
Description: as §4

DDR1, sequence (Q08345 19-913): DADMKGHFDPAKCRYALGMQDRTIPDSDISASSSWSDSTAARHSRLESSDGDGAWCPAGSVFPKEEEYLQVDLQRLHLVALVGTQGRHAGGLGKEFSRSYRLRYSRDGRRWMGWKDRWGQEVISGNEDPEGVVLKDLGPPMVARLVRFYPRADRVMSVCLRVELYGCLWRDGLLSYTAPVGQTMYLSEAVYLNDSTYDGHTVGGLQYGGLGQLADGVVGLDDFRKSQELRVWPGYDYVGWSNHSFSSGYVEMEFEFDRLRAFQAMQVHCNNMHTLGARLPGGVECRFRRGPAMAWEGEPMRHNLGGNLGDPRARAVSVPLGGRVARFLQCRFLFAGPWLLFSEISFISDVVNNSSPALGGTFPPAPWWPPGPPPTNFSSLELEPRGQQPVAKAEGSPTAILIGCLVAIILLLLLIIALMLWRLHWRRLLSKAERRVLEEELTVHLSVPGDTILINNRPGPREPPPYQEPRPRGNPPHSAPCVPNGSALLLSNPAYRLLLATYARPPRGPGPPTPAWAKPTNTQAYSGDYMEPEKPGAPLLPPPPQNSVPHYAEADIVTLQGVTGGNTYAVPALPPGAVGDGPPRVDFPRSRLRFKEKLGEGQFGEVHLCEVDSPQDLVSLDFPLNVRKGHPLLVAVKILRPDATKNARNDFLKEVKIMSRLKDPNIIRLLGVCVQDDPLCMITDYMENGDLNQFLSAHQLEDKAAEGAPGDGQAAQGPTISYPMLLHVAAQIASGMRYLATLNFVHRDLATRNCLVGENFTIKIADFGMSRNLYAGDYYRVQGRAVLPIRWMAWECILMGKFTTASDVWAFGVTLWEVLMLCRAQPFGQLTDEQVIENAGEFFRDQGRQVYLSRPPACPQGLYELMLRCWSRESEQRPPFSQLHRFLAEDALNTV
MAP4K3, sequence (Q8IVH8 whole entry): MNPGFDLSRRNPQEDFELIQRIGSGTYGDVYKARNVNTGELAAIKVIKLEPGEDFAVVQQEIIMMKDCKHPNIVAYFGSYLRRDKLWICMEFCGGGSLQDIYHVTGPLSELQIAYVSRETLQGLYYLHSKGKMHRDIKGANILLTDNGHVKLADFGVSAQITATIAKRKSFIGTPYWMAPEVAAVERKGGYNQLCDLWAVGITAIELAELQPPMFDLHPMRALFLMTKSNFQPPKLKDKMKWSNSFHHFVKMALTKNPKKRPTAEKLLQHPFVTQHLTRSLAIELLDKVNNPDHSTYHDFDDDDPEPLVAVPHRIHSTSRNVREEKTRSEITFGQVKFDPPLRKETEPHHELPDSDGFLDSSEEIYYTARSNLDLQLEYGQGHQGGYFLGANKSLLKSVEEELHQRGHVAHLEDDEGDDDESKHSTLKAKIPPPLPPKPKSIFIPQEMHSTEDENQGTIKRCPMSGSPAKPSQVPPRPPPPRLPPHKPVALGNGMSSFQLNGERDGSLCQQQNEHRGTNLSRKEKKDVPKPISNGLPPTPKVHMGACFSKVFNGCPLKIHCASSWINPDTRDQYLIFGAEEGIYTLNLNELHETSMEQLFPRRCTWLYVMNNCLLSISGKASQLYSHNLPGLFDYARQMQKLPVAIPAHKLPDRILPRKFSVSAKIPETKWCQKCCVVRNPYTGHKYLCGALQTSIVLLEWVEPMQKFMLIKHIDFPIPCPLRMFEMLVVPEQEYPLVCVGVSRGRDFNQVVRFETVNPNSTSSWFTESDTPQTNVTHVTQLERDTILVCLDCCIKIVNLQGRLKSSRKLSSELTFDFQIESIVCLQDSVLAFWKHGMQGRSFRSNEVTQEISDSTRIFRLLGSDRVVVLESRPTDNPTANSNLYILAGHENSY
RIPK5, sequence (Q6XUX3 whole entry): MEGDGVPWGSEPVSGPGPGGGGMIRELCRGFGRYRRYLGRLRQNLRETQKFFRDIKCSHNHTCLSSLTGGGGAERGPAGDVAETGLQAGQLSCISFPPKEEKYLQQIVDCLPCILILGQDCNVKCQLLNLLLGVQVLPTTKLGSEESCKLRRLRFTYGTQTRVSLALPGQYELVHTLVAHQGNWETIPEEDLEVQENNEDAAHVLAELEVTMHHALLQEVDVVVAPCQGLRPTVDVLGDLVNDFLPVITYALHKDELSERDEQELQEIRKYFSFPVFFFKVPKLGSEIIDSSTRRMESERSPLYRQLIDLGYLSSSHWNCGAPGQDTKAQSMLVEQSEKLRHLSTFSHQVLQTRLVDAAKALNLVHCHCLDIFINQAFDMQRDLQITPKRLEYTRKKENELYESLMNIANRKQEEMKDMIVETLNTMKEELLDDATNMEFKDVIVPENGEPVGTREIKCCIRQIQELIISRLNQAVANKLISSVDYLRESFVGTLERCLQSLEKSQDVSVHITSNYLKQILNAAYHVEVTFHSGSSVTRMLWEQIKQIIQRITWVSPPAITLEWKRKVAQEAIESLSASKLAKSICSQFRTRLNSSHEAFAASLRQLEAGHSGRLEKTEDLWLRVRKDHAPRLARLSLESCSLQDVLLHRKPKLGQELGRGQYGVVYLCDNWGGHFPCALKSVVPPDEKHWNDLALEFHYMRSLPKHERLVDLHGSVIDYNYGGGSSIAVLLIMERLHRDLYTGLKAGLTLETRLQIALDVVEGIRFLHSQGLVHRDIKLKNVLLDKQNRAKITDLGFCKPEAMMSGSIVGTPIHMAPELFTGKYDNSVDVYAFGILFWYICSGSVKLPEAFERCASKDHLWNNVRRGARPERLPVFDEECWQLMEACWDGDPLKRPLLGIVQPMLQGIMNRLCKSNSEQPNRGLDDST
p38-beta, sequence (Q15759 whole entry): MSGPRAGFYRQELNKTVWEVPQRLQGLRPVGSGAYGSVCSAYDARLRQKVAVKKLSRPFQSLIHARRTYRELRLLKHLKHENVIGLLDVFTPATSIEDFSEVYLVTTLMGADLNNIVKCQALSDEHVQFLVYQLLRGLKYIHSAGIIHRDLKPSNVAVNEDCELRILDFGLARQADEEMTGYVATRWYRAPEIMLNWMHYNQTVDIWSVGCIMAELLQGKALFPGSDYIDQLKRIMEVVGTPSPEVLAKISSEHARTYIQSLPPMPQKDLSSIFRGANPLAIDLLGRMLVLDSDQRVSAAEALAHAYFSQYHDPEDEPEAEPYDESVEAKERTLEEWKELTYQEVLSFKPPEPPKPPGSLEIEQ
TYK2(JH1domain-catalytic), sequence (P29597 897-1176 limits assumed): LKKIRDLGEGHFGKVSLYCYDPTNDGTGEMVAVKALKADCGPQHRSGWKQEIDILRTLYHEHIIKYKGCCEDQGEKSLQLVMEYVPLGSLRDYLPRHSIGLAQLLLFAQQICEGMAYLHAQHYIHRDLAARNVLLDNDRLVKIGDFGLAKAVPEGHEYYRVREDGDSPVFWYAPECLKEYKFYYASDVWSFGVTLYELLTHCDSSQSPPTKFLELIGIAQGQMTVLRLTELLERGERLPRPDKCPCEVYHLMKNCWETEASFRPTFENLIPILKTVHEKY

O=C1CCC(N2C(=O)c3cccc(NCCCCCCCCNC(=O)N4CC[C@H](NC5=Nc6cc(F)ccc6N(CC(F)F)c6ccc(Cl)cc65)C4)c3C2=O)C(=O)N1 (stereo partly drawn) [BJG-05-039, (3S)-3-((2-Chloro-5-(2,2-difluoroethyl)-8-fluoro-5H-dibenzo[b,e][1,4]diazepin-11-yl)amino)-N-(8-((2-(2,6-dioxopiperidin-3-yl)-1,3-dioxoisoindolin-4-yl)amino)octyl)pyrrolidine-1-carboxamide]
remaining binding at 10 µM (TAK1): 100% | remaining binding at 10 µM (MAP3K15): 99% | remaining binding at 10 µM [1]: 91% | remaining binding at 10 µM (EPHB2): 74% | remaining binding at 10 µM (LCK): 91% | remaining binding at 10 µM (p38-beta): 97% | remaining binding at 10 µM (PIK3CA(E545K)): 100% | remaining binding at 10 µM (DDR1): 52% | remaining binding at 10 µM (MAP4K3): 72% | Change in protein abundance (RNF166): strongly downregulated | Change in protein abundance (Aiolos (IKZF3)): strongly downregulated | Change in protein abundance (Ikaros (IKZF1)): strongly downregulated | remaining binding at 10 µM (PAK4): 75% | remaining binding at 10 µM (RIPK5): 87% | remaining binding at 10 µM (PIK3CA(H1047L)): 63% | remaining binding at 10 µM (TLK1): 46% | remaining binding at 10 µM (ERBB3): 59%
